Legend:
full length human TREX1 = molecular target: T1, full length human TREX1 (Homo sapiens, UniProt Q9NSU2); test: hTREX1 Biochemical Assay (fluorescence, dsDNA substrate degradation); settings: biochemical, read-out: hTREX1 IC50
T1 construct: N-terminally His-Tev tagged full length human TREX1; made in house; host or cells: E. coli
T1 sequence (Q9NSU2 1-314): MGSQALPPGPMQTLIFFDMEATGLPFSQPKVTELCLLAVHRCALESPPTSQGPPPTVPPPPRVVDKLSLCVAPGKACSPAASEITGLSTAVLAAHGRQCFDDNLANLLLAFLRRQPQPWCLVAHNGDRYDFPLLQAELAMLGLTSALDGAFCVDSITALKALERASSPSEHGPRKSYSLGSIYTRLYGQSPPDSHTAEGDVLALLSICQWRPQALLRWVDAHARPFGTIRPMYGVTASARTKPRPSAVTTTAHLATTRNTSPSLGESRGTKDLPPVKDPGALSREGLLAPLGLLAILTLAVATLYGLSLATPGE
Procedure, shortened: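 Cleavage of 60 nM TEX615/quencher-labelled dsDNA in pH 7.4 Tris buffer with 5 mM MgCl2, 1.0% DMSO, run 18 hours at 25° C, EDTA-quenched; fluorescence read-out.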

full length mouse TREX1 = molecular target: T2, full length mouse TREX1 (Mus musculus, UniProt Q91XB0); test: mTREX1 Biochemical Assay (fluorescence, dsDNA substrate degradation); settings: biochemical, read-out: mTREX1 IC50
T2 construct: N-terminally His-Tev tagged full length mouse TREX1; made in house; host or cells: E. coli
T2 sequence (Q91XB0 1-314): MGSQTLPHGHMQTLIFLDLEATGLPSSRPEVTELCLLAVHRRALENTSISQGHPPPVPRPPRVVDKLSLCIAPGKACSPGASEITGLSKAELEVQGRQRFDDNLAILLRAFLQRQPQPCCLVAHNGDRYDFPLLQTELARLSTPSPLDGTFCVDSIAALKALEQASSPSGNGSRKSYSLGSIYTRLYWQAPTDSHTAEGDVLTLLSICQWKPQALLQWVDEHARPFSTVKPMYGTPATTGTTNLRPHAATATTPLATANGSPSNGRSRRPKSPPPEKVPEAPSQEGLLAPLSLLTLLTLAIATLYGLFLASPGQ
Procedure, shortened: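 Reaction run 18 h at 25° C. with 60 nM TEX615/quencher-labelled dsDNA and 6 pM mouse TREX1 in Tris buffer (pH 7.4, 5 mM MgCl2, 1.0% DMSO), enzyme having sat 4 h with compound across 10 concentrations. EDTA quench; substrate degradation measured as fluorescence increase.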

hTREX1 = molecular target: T3, hTREX1 (Homo sapiens, UniProt Q9NSU2); test: hTREX1 HCT116 Cell Assay (HCT116 dual cells, Lucia luciferase reporter of Type I interferon induction); format: cell-based; settings: TREX1i 4 h before pBR322/BstNI transfection, read after 48 h
T3 construct: host or cells: HCT116 dual cells
T3 sequence (Q9NSU2 1-314): T1 sequence (Q9NSU2 1-314)
Excerpt: HCT116 dual cells (Invivogen, San Diego, CA, USA) are derived from the human HCT116 colorectal carcinoma cell line. Cells have been selected for the stable integration of SEAP and Luciferase reporter genes, which expression is under the control of 5 tandem response elements for NF-KB/AP1 and STAT1/STAT2, respectively. The cell line was used to monitor Type I interferon induction and subsequent signaling by measuring the activity of the Lucia luciferase secreted in the culture medium.
HCT116 cells were plated in 96-well plate(s) at 40,000 cells/well in 100 uL DMEM supplemented with 10% FBS and 25 mM Hepes (pH 7.2-7.5). After overnight settling, cells were treated with TREX1i for 4 h (maximum DMSO fraction was 0.1%) before 1 ug/mL pBR322/BstNI restriction digest (New England Biolabs, Ipswich, MA, USA) was transfected with Lipofectamine LTX (ThermoFisher, Grand Island, NY, USA), according to product manual recommendations. Briefly, Lipofectamine LTX (0.35 uL/well) was diluted in OptiMEM (5 uL/well). pBR322/BstNI (100 ng/well) was diluted in OptiMEM (5 uL/well) before Plus reagent (0.1 uL/100 ng DNA) was added. After 5 min incubation at room temperature, the DNA mixture was mixed dropwise with the diluted Lipofectamine LTX. After an additional 10 min incubation, the transfection mix (10 uL/well) was added to the cells. Cells were maintained at 37 C for 48 h before monitoring the Lucia Luciferase activity from the cell culture medium.

| IC50 (full length human TREX1) [nM] | IC50 (full length mouse TREX1) [nM] | IC50 (hTREX1) [nM] | SMILES |
| --- | --- | --- | --- |
| 1 to 10 | > 10 | > 100 | Cc1nn(C)cc1C(c1ccccc1C#N)C(C)c1nc(C(=O)Nc2cnoc2)c(O)c(=O)n1C (single isomer, unassigned) [Example 3 D2E2] |
| < 1 | 1 to 10 | 10 to 100 | Cc1c(C(c2ccccc2C#N)C(C)c2nc(C(=O)Nc3cnoc3)c(O)c(=O)n2C)cnn1C (single isomer, unassigned) [Example 4 D1E1] |
| 1 to 10 | > 10 | > 100 | Cc1ccc(C(c2ccccc2C#N)C(C)c2nc(C(=O)Nc3cnoc3)c(O)c(=O)n2C)cn1 (single isomer, unassigned) [Example 5 D2E2] |
| 1 to 10 | > 10 | > 100 | Cc1cc(C(c2ccccc2C#N)C(C)c2nc(C(=O)Nc3cnoc3)c(O)c(=O)n2C)ccn1 (single isomer, unassigned) [Example 6 D2E2] |
| 1 to 10 | > 10 | > 100 | CC(c1nc(C(=O)Nc2cnoc2)c(O)c(=O)n1C)C(c1cnn(C)c1)c1cccnc1C#N (single isomer, unassigned) [Example 7 D1E1] |
| < 1 | 1 to 10 | 10 to 100 | CC(c1nc(C(=O)Nc2cnoc2)c(O)c(=O)n1C)C(c1cnn(C)c1)c1ccncc1C#N (single isomer, unassigned) [Example 8 D1E2] |
| 1 to 10 | > 10 | > 100 | CC(c1nc(C(=O)Nc2cnoc2)c(O)c(=O)n1C)C(c1cnn(C)c1)c1ccncc1C#N (single isomer, unassigned) [Example 8 D2E2] |
| 1 to 10 | > 10 | 10 to 100 | CC(c1nc(C(=O)Nc2cnoc2)c(O)c(=O)n1C)C(c1ccccc1C#N)c1cn(C)nc1C#N (single isomer, unassigned) [Example 10 D1E2] |
| < 1 | 1 to 10 | > 100 | COCCn1cc(C(c2cc(F)ccc2C#N)C(C)c2nc(C(=O)Nc3cnoc3)c(O)c(=O)n2C)cn1 (single isomer, unassigned) [Example 18 D1E2] |
| < 1 | 1 to 10 | < 10 | CC(c1nc(C(=O)Nc2cnoc2)c(O)c(=O)n1C)C(c1cnn(C)c1)c1c(C#N)cccc1C#N (single isomer, unassigned) [Example 19 D1E2] |
| < 1 | 1 to 10 | 10 to 100 | CC(c1nc(C(=O)Nc2cnoc2)c(O)c(=O)n1C)C(c1cnn(C)c1)c1cc(F)c(F)cc1Cl (single isomer, unassigned) [Example 28 D1E1] |
| < 1 | 1 to 10 | > 100 | CC(c1nc(C(=O)Nc2cnoc2)c(O)c(=O)n1C)C(c1cnn(CCN2CCNCC2)c1)c1ccccc1C#N (single isomer, unassigned) [Example 31 D1E1] |
| < 1 | 1 to 10 | > 100 | CC(c1nc(C(=O)Nc2cnoc2)c(O)c(=O)n1C)C(c1cnn(CCN2CCN(C)CC2)c1)c1ccccc1C#N (single isomer, unassigned) [Example 32 D1E1] |
| < 1 | 1 to 10 | > 100 | CC(c1nc(C(=O)Nc2cnoc2)c(O)c(=O)n1C)C(c1cnn(CCCN(C)C)c1)c1ccccc1C#N (single isomer, unassigned) [Example 34 D1E1] |
| < 1 | 1 to 10 | > 100 | CC(c1nc(C(=O)Nc2cnoc2)c(O)c(=O)n1C)C(c1cnn(CC(C)(C)O)c1)c1ccccc1C#N (single isomer, unassigned) [Example 36 D1E1] |
| < 1 | 1 to 10 | 10 to 100 | COC(C)(C)Cn1cc(C(c2ccccc2C#N)C(C)c2nc(C(=O)Nc3cnoc3)c(O)c(=O)n2C)cn1 (single isomer, unassigned) [Example 37 D1E1] |
| 1 to 10 | > 10 | > 100 | CC(c1nc(C(=O)Nc2cnoc2)c(O)c(=O)n1C)C(c1cnn(C(F)F)c1)c1ccccc1C#N (single isomer, unassigned) [Example 38 D2E2] |
| 1 to 10 | > 10 | > 100 | CC(c1nc(C(=O)Nc2cnoc2)c(O)c(=O)n1C)C(c1cocn1)c1ccccc1C#N (single isomer, unassigned) [Example 50 D1E1] |
| 1 to 10 | > 10 | 10 to 100 | CC(c1nc(C(=O)Nc2cnoc2)c(O)c(=O)n1C)C(c1ncn(C)n1)c1ccccc1C#N (single isomer, unassigned) [Example 51 D1E2] |
| 1 to 10 | > 10 | 10 to 100 | CC(c1nc(C(=O)Nc2cnoc2)c(O)c(=O)n1C)C(c1ccccc1C#N)c1c(C#N)cnn1C (single isomer, unassigned) [Example 52 D1E1] |
| > 10 | > 10 | > 100 | CC(c1nc(C(=O)Nc2cnoc2)c(O)c(=O)n1C)C(c1ccccc1C#N)c1c(C#N)cnn1C (single isomer, unassigned) [Example 52 D2E1] |
| < 1 | 1 to 10 | < 10 | CC(c1nc(C(=O)Nc2cnoc2)c(O)c(=O)n1C)C(c1cnn(C)c1)c1cc(F)ccc1Cl (single isomer, unassigned) [Example 61 D1E1] |
| < 1 | 1 to 10 | < 10 | Cc1nn(C)cc1C(c1cc(F)ccc1Cl)C(C)c1nc(C(=O)Nc2cnoc2)c(O)c(=O)n1C (single isomer, unassigned) [Example 62 D2E2] |
| < 1 | < 1 | < 10 | CCn1ncc(C(c2ccc(F)cc2C#N)C(C)c2nc(C(=O)Nc3cnoc3)c(O)c(=O)n2C)c1C (single isomer, unassigned) [Example 65 D1E1] |
| < 1 | < 1 | < 10 | CCn1ncc(C(c2ccccc2C#N)C(C)c2nc(C(=O)Nc3cnoc3)c(O)c(=O)n2C)c1C (single isomer, unassigned) [Example 68 D1E1] |
| 1 to 10 | > 10 | 10 to 100 | Cc1nn(C)c(C)c1C(c1ccccc1C#N)C(C)c1nc(C(=O)Nc2cnoc2)c(O)c(=O)n1C (single isomer, unassigned) [Example 78 D2E1] |
|  |  | < 10 | Cc1cnc(C)c(C(c2cc(F)ccc2C#N)C(C)c2nc(C(=O)Nc3cnoc3)c(O)c(=O)n2C)n1 (single isomer, unassigned) [Example 119 D1E1] |
